Assay results: the supplement of paper PMC10307832

Key:
Assay in all cases: relative viability (nuclei count vs DMSO), 5 days (fraction); higher = more cells survive
Idelalisib + Crizotinib = compound: CC[C@H](Nc1ncnc2[nH]cnc12)c1nc2cccc(F)c2c(=O)n1-c1ccccc1 [Idelalisib] + C[C@@H](Oc1cc(-c2cnn(C3CCNCC3)c2)cnc1N)c1c(Cl)ccc(F)c1Cl [Crizotinib] (partner 1 µM)
In short: (§1)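 Lung cancer cell lines were seeded in 1536-well plates and dosed by pin tool the next day, with either a single drug or a fixed anchor-drug dose combined with five library-drug doses (not always all listed) spaced in √10 steps. Five days later, one step fixed the cells and stained their nuclei (final 0.05% Triton X-100, 1% formaldehyde, 1 ug/ml Hoechst), and nuclei were counted on 4× images. Relative viability is the nuclei count in treated wells divided by the count in vehicle wells, and each value is the median of duplicate plates.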

Idelalisib + Vorinostat = compound: CC[C@H](Nc1ncnc2[nH]cnc12)c1nc2cccc(F)c2c(=O)n1-c1ccccc1 [Idelalisib] + O=C(CCCCCCC(=O)Nc1ccccc1)NO [Vorinostat] (partner 1 µM)
In short: as §1

Pemetrexed + Palbociclib = compound: Nc1nc2[nH]cc(CCc3ccc(C(=O)N[C@@H](CCC(=O)O)C(=O)O)cc3)c2c(=O)[nH]1 [Pemetrexed] + CC(=O)c1c(C)c2cnc(Nc3ccc(N4CCNCC4)cn3)nc2n(C2CCCC2)c1=O [Palbociclib] (partner 0.5 µM)
In short: as §1

Pemetrexed + Decitabine = compound: Nc1nc2[nH]cc(CCc3ccc(C(=O)N[C@@H](CCC(=O)O)C(=O)O)cc3)c2c(=O)[nH]1 [Pemetrexed] + Nc1ncn([C@H]2C[C@H](O)[C@@H](CO)O2)c(=O)n1 [Decitabine] (partner 2 µM)
In short: as §1

Row | Cell Line | relative viability (Idelalisib + Crizotinib; first compound 0.04 µM) | relative viability (Idelalisib + Crizotinib; first compound 0.1265 µM) | relative viability (Idelalisib + Crizotinib; first compound 1.265 µM) | relative viability (Idelalisib + Crizotinib; first compound 4 µM) | relative viability (Idelalisib + Vorinostat; first compound 0.04 µM) | relative viability (Idelalisib + Vorinostat; first compound 0.1265 µM) | relative viability (Idelalisib + Vorinostat; first compound 0.4 µM) | relative viability (Idelalisib + Vorinostat; first compound 1.265 µM) | relative viability (Idelalisib + Vorinostat; first compound 4 µM) | relative viability (Pemetrexed + Palbociclib; first compound 0.002 µM) | relative viability (Pemetrexed + Palbociclib; first compound 0.006325 µM) | relative viability (Pemetrexed + Palbociclib; first compound 0.02 µM) | relative viability (Pemetrexed + Palbociclib; first compound 0.06325 µM) | relative viability (Pemetrexed + Palbociclib; first compound 0.2 µM) | relative viability (Pemetrexed + Decitabine; first compound 0.002 µM) | relative viability (Pemetrexed + Decitabine; first compound 0.006325 µM) | relative viability (Pemetrexed + Decitabine; first compound 0.02 µM) | relative viability (Pemetrexed + Decitabine; first compound 0.06325 µM) | relative viability (Pemetrexed + Decitabine; first compound 0.2 µM) | relative viability (Idelalisib + Crizotinib; first compound 0.4 µM)
1 | HOP-62 | 0.944 | 0.964 | 0.806 | 1.03 | 0.669 | 0.66 | 0.576 | 0.619 | 0.491 | 0.363 | 0.479 | 0.555 | 0.452 | 0.37 | 0.198 | 0.262 | 0.249 | 0.204 | 0.2 | –
2 | LC-2-ad | 0.427 | 0.415 | 0.439 | 0.508 | 0.798 | 0.702 | 0.683 | 0.791 | 0.703 | 0.452 | 0.501 | 0.524 | 0.431 | 0.404 | 0.807 | 0.771 | 0.779 | 0.755 | 0.316 | 0.447
3 | LCLC-97TM1 | 0.338 | 0.212 | 0.422 | 0.295 | 0.802 | 0.871 | 0.446 | 0.868 | 0.685 | 0.225 | 0.228 | 0.206 | 0.21 | 0.259 | 0.241 | 0.245 | 0.203 | 0.233 | 0.209 | –
4 | LCLC-103H | 1.03 | 0.986 | 1.09 | 0.839 | 0.864 | 0.926 | 0.664 | 0.798 | 0.58 | 0.465 | 0.454 | 0.496 | 0.443 | 0.479 | 0.722 | 0.723 | 0.743 | 0.699 | 0.76 | 0.957
5 | LK-2 | 0.264 | 0.205 | 0.215 | 0.235 | 0.307 | 0.295 | 0.173 | 0.338 | 0.221 | 0.751 | 0.758 | 0.721 | 0.464 | 0.366 | 0.277 | 0.358 | 0.259 | 0.251 | 0.263 | –
6 | LOU-NH91 | 0.791 | 0.711 | 0.68 | 0.727 | 0.998 | 0.899 | 0.794 | 0.726 | 0.91 | 0.478 | 0.555 | 0.543 | 0.534 | 0.52 | 0.811 | 0.78 | 0.798 | 0.66 | 0.578 | 0.677
7 | LU99A | 0.625 | 0.638 | 0.614 | 0.643 | 0.536 | 0.468 | 0.387 | 0.535 | 0.506 | 0.409 | 0.389 | 0.407 | 0.397 | 0.407 | 0.802 | 0.753 | 0.947 | 0.865 | 0.887 | 0.578
